According to publication PMC10892419, “UHPLC-MS/MS Assay for Quantification of Legubicin, a Novel Doxorubicin-Based Legumain-Activated Prodrug, and Its Application to Pharmacokinetic and Tissue Distribution Studies” (Molecules, 2024):

Experiments:
[1] = Single-dose pharmacokinetic study of legubicin, i.v.; conditions: free metabolite in plasma; for AUClast / Cmax: n = 3, mean ± SD; for Tmax: n = 3, median [min, max]
Protocol: The pharmacokinetic parameters are outlined in Table 5. […] A power-function model was used to fit the relationship between exposure level (Cmax, AUClast, and AUCINF_obs) parameters and dose, and the power exponent (parameter β) and its 90% confidence interval were obtained (see Table S5).
(§1) The mixture was vortexed for 3 min, and then centrifuged at 22,000× g at 4 °C for 10 min. A final analysis was conducted by injecting 5 µL supernatant into a UHPLC-MS/MS system. Mouse plasma samples were treated in the same way as the rat plasma samples, except for protein precipitation, with 200 µL of 5 pmol/mL IS working solution and injection of 2 µL of supernatant for analysis.
(§2) (1) For the hydrolysis process, an aliquot of 25 µL of rat/mouse plasma was transferred into an Eppendorf tube, and then 50 µL of enzyme digestion buffer and 25 µL of legumain enzyme were placed into the tube. The mixture was vortexed for 1 min, and then incubated in a water bath for 24 h at 37 °C for enzymatic hydrolysis. (2) For the protein precipitation process, 1000 µL of IS working solution (5 pmol/mL and 50 pmol/mL for rat and mouse plasmas, respectively) was added to the enzymatic-hydrolysis solution. Then, the sample was vortexed for 3 min and centrifuged at 22,000× g for 10 min at 4 °C. Analyses were performed on the 3 µL aliquot of the solution used in the UHPLC-MS/MS system.
(§3) Twenty-four rats, inclusive of both sexes, were randomly distributed into four groups. Groups 1, 2, and 3 were single-dose groups, among which the subjects received legubicin via tail intravenous injection (a dose of 1.5, 5, or 15 mg/kg; i.e., 1.36, 4.52, or 13.6 µmol/kg). The fourth group was utilized for a multi-dose study at 5 mg/kg (once-weekly for 4 consecutive weeks). Blood samples of approximately 150 µL were taken from the jugular vein at 0 h (pre-dosing) and at 0.167 h (10 min), 0.5 h, 1 h, 2 h, 4 h, 8 h, 24 h, 48 h, and 72 h post-dosing in the single-dose groups. Samples were also obtained on days 1 and 22 for the multiple-dose group in the same way as for the single-dose groups. However, on days 8 and 15, samples were taken only before and 10 min after administration. The K2EDTA quantities containing blood samples were centrifuged (4 °C, 4000 rpm, 10 min) to collect plasma samples, which were separated into EP tubes and kept at −80 °C until further assay.
(§4) The analysis software (Version 1.5.2, AB Sciex, Vaughan, ON, Canada) was applied to data acquisition and quantification. Pharmacokinetic parameters were calculated with WinNonlin Phoenix (v6.4, Pharsight, Mountain View, CA, USA) with the noncompartmental method, and were presented as mean ± SD (%CV). The “Best fit” strategy in the WinNonlin Phoenix was used for the calculation of elimination half-life and the selection of the elimination phase. Graphs were plotted by GraphPad Software (GraphPad Prism 8.0.2; GraphPad Software, Inc., La Jolla, CA, USA).

[2] = Multiple-dose pharmacokinetic study of legubicin, weekly i.v. for 4 weeks; conditions: free metabolite in plasma, weekly i.v. legubicin 5 mg/kg; for Tmax: median [min, max]; for AUClast / Cmax: n = 3
Protocol: as §1, §2, §3, §4

[3] = Tissue-distribution study after i.v. legubicin or doxorubicin; conditions: HT1080 tumor-bearing mice
Protocol: as §1
Each legubicin administration group corresponded to a sampling time-point (4, 16, 32, 48, 96, 168, and 240 h after administration). […] Blood samples and tumor, heart, and kidney tissues were collected at the sampling time points (4, 16, 32, 48, 96, 168, and 240 h after dosing). In addition, liver, spleen, lung, stomach, small intestine, gonads, brain, skeletal muscle, and skin were also collected at 4, 32, 96, and 240 h post-dose time points in the legubicin administration group. All whole-blood samples were processed according to the same processing steps, described above, for rat whole-blood samples.
as §4

[4] = Storage stability of analytes in rat plasma (method validation); conditions: for Auto-Sampler Stability at 2–8 °C (72 h), Bias / Auto-Sampler Stability at 2–8 °C (72 h), Measured Concentration: processed rat plasma; for Auto-Sampler Stability at 2–8 °C (72 h), Bias / Short-Term Stability at Room Temperature (4 h), Bias / Freeze and Thaw Stability at −80 °C/Room Temperature (3 Cycles), Bias / Long-Term Stability at −80 °C (70 days), Bias: n = 6; for Auto-Sampler Stability at 2–8 °C (72 h), Measured Concentration / Freeze and Thaw Stability at −80 °C/Room Temperature (3 Cycles), Measured Concentration / Long-Term Stability at −80 °C (70 days), Measured Concentration / Short-Term Stability at Room Temperature (4 h), Measured Concentration: n = 6, mean ± SD; for Short-Term Stability at Room Temperature (4 h), Bias / Freeze and Thaw Stability at −80 °C/Room Temperature (3 Cycles), Bias / Long-Term Stability at −80 °C (70 days), Bias / Freeze and Thaw Stability at −80 °C/Room Temperature (3 Cycles), Measured Concentration / Long-Term Stability at −80 °C (70 days), Measured Concentration / Short-Term Stability at Room Temperature (4 h), Measured Concentration: rat plasma; for Short-Term Stability at Room Temperature (4 h), Bias: bias from nominal
Protocol: (§5) By investigating low- and high-concentration stability QCs in six replicates at different storage conditions, autosampler, short-term (bench-top), freeze and thaw, and long-term stability evaluations were conducted.

[5] = Storage stability of analytes in mouse tumor homogenate (method validation)
Protocol: (§6) Tumor-bearing mouse tumor/individual tissue samples were homogenized by adding PBS at a ratio of 1:5 (e.g., 1 g of tumor sample to 5 mL of PBS) to make a tumor/tissue homogenate. A quantity of 60 µL of homogenate was taken as a tumor/tissue sample and processed in the same manner as the mouse plasma sample, with the exception of 240 µL of IS working solution used for protein precipitation.
as §5

[6] = Storage stability of analytes in mouse liver homogenate (method validation)
Protocol: as §6, §5

[7] = female SD rats, single i.v. legubicin 5 mg/kg
[8] = female SD rats, single i.v. legubicin 15 mg/kg
[9] = male SD rats, single i.v. legubicin 5 mg/kg
[10] = male SD rats, single i.v. legubicin 15 mg/kg
[11] = female SD rats, multiple dose (day 22)
[12] = female SD rats, single dose (day 1)
[13] = male SD rats, multiple dose (day 22)
[14] = male SD rats, single dose (day 1)
[15] = i.v. 9.05 µmol/kg of the labelled drug, n = 6, UHPLC-MS/MS
[16] = high QC (Leu-DOX 4000, DOX 1200 pmol/mL, conjugate 80 nmol/mL)
[17] = high QC (nominal Leu-DOX 4000, DOX 1200 pmol/mL)
[18] = low QC (Leu-DOX 10, DOX 3 pmol/mL, conjugate 0.2 nmol/mL)
[19] = low QC (nominal Leu-DOX 10, DOX 3 pmol/mL)

AUClast [1, 7]: 0.1 ± 0.00538 µM·h | Cmax [1, 7]: 3.11 ± 0.615 nM | Tmax [1, 7]: 0.167 [0.167, 0.167] h | AUClast [1, 8]: 0.486 ± 0.0464 µM·h | Cmax [1, 8]: 20.5 ± 5.06 nM | Tmax [1, 8]: 0.167 [0.167, 0.167] h | AUClast [1, 9]: 0.173 ± 0.0243 µM·h | Cmax [1, 9]: 6.65 ± 1.30 nM | Tmax [1, 9]: 0.167 [0.167, 0.167] h | AUClast [1, 10]: 0.789 ± 0.0997 µM·h | Cmax [1, 10]: 44.2 ± 4.65 nM | Tmax [1, 10]: 0.167 [0.167, 0.167] h | Tmax [2, 11]: 0.167 [0.167, 0.167] h | AUClast [2, 11]: 0.174 ± 0.0367 µM·h | Cmax [2, 11]: 4.70 ± 0.534 nM | Tmax [2, 12]: 0.167 [0.167, 0.167] h | AUClast [2, 12]: 0.0945 ± 0.0447 µM·h | Cmax [2, 12]: 3.10 ± 0.367 nM | Tmax [2, 13]: 0.167 [0.167, 0.167] h | AUClast [2, 13]: 0.207 ± 0.0112 µM·h | Cmax [2, 13]: 8.58 ± 0.616 nM | Tmax [2, 14]: 0.167 [0.167, 0.167] h | AUClast [2, 14]: 0.123 ± 0.0441 µM·h | Cmax [2, 14]: 6.01 ± 0.430 nM | AUClast of doxorubicin in heart [3, 15]: 29.0 nmol·h/g | AUClast of doxorubicin in kidney [3, 15]: 83.5 nmol·h/g | AUClast of doxorubicin in plasma [3, 15]: 1.07 nmol·h/g | AUClast of doxorubicin in tumor [3, 15]: 63.1 nmol·h/g | order of exposure (Dox distribution) ([3]; after i.v. doxorubicin 9.05 µmol/kg, n = 6): kidney > tumor > heart > plasma | time of maximum concentration (Cmax) in all tissues ([3]; after i.v. doxorubicin 9.05 µmol/kg, initial sampling point): 4 h | Auto-Sampler Stability at 2–8 °C (72 h), Bias [4, 16]: 1.0% | Auto-Sampler Stability at 2–8 °C (72 h), Measured Concentration [4, 17]: 1211.67 ± 104.58 nM | Auto-Sampler Stability at 2–8 °C (72 h), Bias [4, 18]: 4.4% | Auto-Sampler Stability at 2–8 °C (72 h), Measured Concentration [4, 19]: 3.13 ± 0.25 nM | Short-Term Stability at Room Temperature (4 h), Bias [4, 16]: 3.2% | Freeze and Thaw Stability at −80 °C/Room Temperature (3 Cycles), Bias [4, 16]: 1.8% | Long-Term Stability at −80 °C (70 days), Bias [4, 16]: −0.8% | Freeze and Thaw Stability at −80 °C/Room Temperature (3 Cycles), Measured Concentration [4, 17]: 1221.67 ± 97.45 pmol/mL | Long-Term Stability at −80 °C (70 days), Measured Concentration [4, 17]: 1190.00 ± 40.50 pmol/mL | Short-Term Stability at Room Temperature (4 h), Measured Concentration [4, 17]: 1238.33 ± 100.48 pmol/mL | Short-Term Stability at Room Temperature (4 h), Bias [4, 18]: 1.2% | Freeze and Thaw Stability at −80 °C/Room Temperature (3 Cycles), Bias [4, 18]: 0.4% | Long-Term Stability at −80 °C (70 days), Bias [4, 18]: −0.6% | Freeze and Thaw Stability at −80 °C/Room Temperature (3 Cycles), Measured Concentration [4, 19]: 3.01 ± 0.15 pmol/mL | Long-Term Stability at −80 °C (70 days), Measured Concentration [4, 19]: 2.98 ± 0.29 pmol/mL | Short-Term Stability at Room Temperature (4 h), Measured Concentration ([4]; low QC (nominal Leu-DOX 10, DOX 3 pmol/mL), UHPLC-MS/MS): 3.04 ± 0.18 pmol/mL | Freeze and thaw stability at -80 °C/ room temperature, Bias ([5]; mouse tumor homogenate, 3 cycles, low QC (Leu-DOX 27, DOX 9 pmol/mL), n = 6): -1.2% | Freeze and thaw stability at -80 °C/ room temperature, Measured concentration ([5]; mouse tumor homogenate, 3 cycles, low QC (nominal Leu-DOX 27, DOX 9 pmol/mL), n = 6, mean ± SD): 8.89 ± 0.66 pmol/mL | Short term stability at room temperature (6 h), Bias ([5]; mouse tumor homogenate, low QC (Leu-DOX 27, DOX 9 pmol/mL), n = 6): 5.7% | Short term stability at room temperature (6 h), Measured concentration ([5]; mouse tumor homogenate, low QC (nominal Leu-DOX 27, DOX 9 pmol/mL), n = 6, mean ± SD): 9.51 ± 0.67 pmol/mL | Auto-sampler stability at 2-8 °C, Bias ([5]; processed mouse tumor homogenate, 48h, low QC (Leu-DOX 27, DOX 9 pmol/mL), n = 6): -5.1% | Auto-sampler stability at 2-8 °C, Measured concentration ([5]; processed mouse tumor homogenate, 48h, low QC (nominal Leu-DOX 27, DOX 9 pmol/mL), n = 6, mean ± SD): 8.54 ± 0.89 pmol/mL | Freeze and thaw stability at -80 °C/ room temperature, Measured concentration ([6]; mouse liver homogenate, 3 cycles, low QC (nominal Leu-DOX 27, DOX 10 pmol/mL), n = 6, mean ± SD): 11.04 ± 0.68 pmol/mL | Short term stability at room temperature (6 h), Bias ([6]; mouse liver homogenate, low QC (Leu-DOX 27, DOX 10 pmol/mL), n = 6): 0.8% | Short term stability at room temperature (6 h), Measured concentration ([6]; mouse liver homogenate, low QC (nominal Leu-DOX 27, DOX 10 pmol/mL), n = 6, mean ± SD): 10.08 ± 0.52 pmol/mL | Auto-sampler stability at 2-8 °C, Measured concentration ([6]; processed mouse liver homogenate, 48h, low QC (nominal Leu-DOX 27, DOX 10 pmol/mL), n = 6, mean ± SD): 11.06 ± 0.81 pmol/mL
Compound: COc1cccc2c1C(=O)c1c(O)c3c(c(O)c1C2=O)C[C@@](O)(C(=O)CO)C[C@@H]3O[C@H]1C[C@H](N)[C@H](O)[C@H](C)O1 [DOX, Doxorubicin]
brain penetration of the metabolite ([3]; after i.v. legubicin 9.05 µmol/kg): neither the metabolite doxorubicin nor free Leu-Dox permeated the brain | tissue concentration rank order of the metabolite ([3]; after i.v. legubicin 9.05 µmol/kg, n = 6): liver having the highest levels, followed by the tumor, skin, lung, gonads, spleen, kidney, stomach, small intestine, skeletal muscle, heart, and plasma
